From the supplement of paper PMC11061612

Legend:
[1] = system: SK-GT-4 (Esophageal Adenocarcinoma); assay: combination Emax (second highest fraction inhibited in the dose matrix, 72 h); higher = more inhibition; extreme values may be limits of the assay
In short: (§1)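 Bliss excess equals the observed combination effect minus the expected value EA + EB − EA·EB, where EA and EB are the effects of each agent alone. Combination Emax is the second-highest inhibition within the matrix. Inhibition was scaled from CellTiter-Glo 2.0 luminescence, with 0 set by vehicle wells and 1 by blank wells, after 72 hours of two-drug dosing of cells plated in 1536-well plates.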

[2] = system: VMRC-RCZ (Kidney Carcinoma); assay: as above
In short: as §1

[3] = system: MOG-G-CCM (Low Grade Glioma); assay: as above
In short: as §1

[4] = system: KYSE-270 (Esophageal Squamous Cell Carcinoma); assay: as above
In short: as §1

[5] = system: NCI-H3122 (Lung Adenocarcinoma); assay: as above
In short: as §1

[6] = system: COR-L279 (Small Cell Lung Carcinoma); assay: as above
In short: as §1

[7] = system: NCCIT (Other Solid Carcinomas); assay: as above
In short: as §1

[8] = system: CW-2 (Colorectal Carcinoma); assay: as above
In short: as §1

[9] = system: KU812 (Chronic Myelogenous Leukemia); assay: as above
In short: as §1

[10] = system: NCI-H520 (Squamous Cell Lung Carcinoma); assay: as above
In short: as §1

[11] = system: T-T (Esophageal Squamous Cell Carcinoma); assay: as above
In short: as §1

M059J (Glioblastoma) [12] = assay: as above
In short: as §1

[13] = system: ST486 (Burkitt's Lymphoma); assay: as above
In short: as §1

[14] = system: NCI-H929 (Plasma Cell Myeloma); assay: as above
In short: as §1

[15] = system: MN-60 (B-Lymphoblastic Leukemia); assay: as above
In short: as §1

[16] = system: NCI-H526 (Small Cell Lung Carcinoma); assay: as above
In short: as §1

[17] = system: OCI-AML3 (Acute Myeloid Leukemia); assay: as above
In short: as §1

[18] = system: DMS-114 (Small Cell Lung Carcinoma); assay: as above
In short: as §1

NCI-H2731 (Mesothelioma) [19] = assay: as above
In short: as §1

SJSA-1 (Osteosarcoma) [20] = assay: as above
In short: as §1

[21] = system: SK-GT-4 (Esophageal Adenocarcinoma); assay: Bliss excess, mean over the matrix (fraction); higher = more synergy
In short: as §1

[22] = system: VMRC-RCZ (Kidney Carcinoma); assay: as above
In short: as §1

[23] = system: MOG-G-CCM (Low Grade Glioma); assay: as above
In short: as §1

[24] = system: KYSE-270 (Esophageal Squamous Cell Carcinoma); assay: as above
In short: as §1

[25] = system: NCI-H3122 (Lung Adenocarcinoma); assay: as above
In short: as §1

[26] = system: COR-L279 (Small Cell Lung Carcinoma); assay: as above
In short: as §1

[27] = system: NCCIT (Other Solid Carcinomas); assay: as above
In short: as §1

[28] = system: CW-2 (Colorectal Carcinoma); assay: as above
In short: as §1

[29] = system: KU812 (Chronic Myelogenous Leukemia); assay: as above
In short: as §1

[30] = system: NCI-H520 (Squamous Cell Lung Carcinoma); assay: as above
In short: as §1

[31] = system: T-T (Esophageal Squamous Cell Carcinoma); assay: as above
In short: as §1

M059J (Glioblastoma) [32] = assay: as above
In short: as §1

[33] = system: ST486 (Burkitt's Lymphoma); assay: as above
In short: as §1

[34] = system: NCI-H929 (Plasma Cell Myeloma); assay: as above
In short: as §1

[35] = system: MN-60 (B-Lymphoblastic Leukemia); assay: as above
In short: as §1

[36] = system: NCI-H526 (Small Cell Lung Carcinoma); assay: as above
In short: as §1

[37] = system: OCI-AML3 (Acute Myeloid Leukemia); assay: as above
In short: as §1

[38] = system: DMS-114 (Small Cell Lung Carcinoma); assay: as above
In short: as §1

NCI-H2731 (Mesothelioma) [39] = assay: as above
In short: as §1

SJSA-1 (Osteosarcoma) [40] = assay: as above
In short: as §1

[41] = system: KP-3 (Pancreatic Carcinoma); assay: combination Emax (second highest fraction inhibited in the dose matrix, 72 h); higher = more inhibition; extreme values may be limits of the assay
In short: as §1

C[C@@H]1COCCN1c1cc(C2([S@](C)(=N)=O)CC2)nc(-c2ccnc3[nH]ccc23)n1 [AZD6738] + Nc1ccn([C@@H]2O[C@H](CO)[C@@H](O)C2(F)F)c(=O)n1 [Gemcitabine] (first compound max 10 µM, 7x7, partner max 0.3 µM)
combination Emax [1]: 0.585 | combination Emax [2]: 0.542 | combination Emax [3]: 0.783 | combination Emax [4]: 1 | combination Emax [5]: 0.899 | combination Emax [6]: 0.995 | combination Emax [7]: 0.839 | combination Emax [8]: 0.659 | combination Emax [9]: 0.853 | combination Emax [10]: 0.916 | combination Emax [11]: 0.897 | combination Emax (M059J (Glioblastoma) [12]): 0.823 | combination Emax [13]: 0.98 | combination Emax [14]: 0.906 | combination Emax [15]: 0.72 | combination Emax [16]: 0.973 | combination Emax [17]: 0.953 | combination Emax [18]: 0.78 | combination Emax (NCI-H2731 (Mesothelioma) [19]): 0.511 | combination Emax (SJSA-1 (Osteosarcoma) [20]): 0.722 | Bliss excess [21]: 0.023 | Bliss excess [22]: 0.0193 | Bliss excess [23]: 0.0311 | Bliss excess [24]: 0.0806 | Bliss excess [25]: 0.0297 | Bliss excess [26]: 0.0205 | Bliss excess [27]: 0.107 | Bliss excess [28]: 0.0109 | Bliss excess [29]: -0.0077 | Bliss excess [30]: 0.0434 | Bliss excess [31]: 0.221 | Bliss excess (M059J (Glioblastoma) [32]): 0.0209 | Bliss excess [33]: 0.0362 | Bliss excess [34]: 0 | Bliss excess [35]: -0.0375 | Bliss excess [36]: 0.0678 | Bliss excess [37]: -0.0143 | Bliss excess [38]: 0.0549 | Bliss excess (NCI-H2731 (Mesothelioma) [39]): 0.0371 | Bliss excess (SJSA-1 (Osteosarcoma) [40]): -0.0104

N#Cc1cnc(Nc2cc(NC[C@H]3CNCCO3)c(C(F)(F)F)cn2)cn1 [SRA737] + Nc1ccn([C@@H]2O[C@H](CO)[C@@H](O)C2(F)F)c(=O)n1 [Gemcitabine] (first compound max 10 µM, 7x7, partner max 0.3 µM)
combination Emax [1]: 0.491 | combination Emax [2]: 0.518 | combination Emax [3]: 0.857 | combination Emax [4]: 0.991 | combination Emax [5]: 0.826 | combination Emax [6]: 0.986 | combination Emax [7]: 0.816 | combination Emax [8]: 0.623 | combination Emax [9]: 0.813 | combination Emax [10]: 0.892 | combination Emax [11]: 0.737 | combination Emax (M059J (Glioblastoma) [12]): 0.794 | combination Emax [13]: 0.968 | combination Emax [14]: 0.922 | combination Emax [15]: 0.745 | combination Emax [16]: 0.942 | combination Emax [17]: 0.93 | combination Emax [18]: 0.715 | combination Emax (NCI-H2731 (Mesothelioma) [19]): 0.515 | combination Emax (SJSA-1 (Osteosarcoma) [20]): 0.681 | Bliss excess [21]: 0.0313 | Bliss excess [22]: 0.0299 | Bliss excess [23]: 0.0991 | Bliss excess [24]: 0.0675 | Bliss excess [25]: 0.0479 | Bliss excess [27]: 0.0492 | Bliss excess [28]: 0.0386 | Bliss excess [29]: 0.0421 | Bliss excess [30]: 0.0706 | Bliss excess [31]: 0.144 | Bliss excess (M059J (Glioblastoma) [32]): 0.0426 | Bliss excess [33]: -0.006 | Bliss excess [34]: 0.0643 | Bliss excess [35]: -0.0116 | Bliss excess [36]: 0.0912 | Bliss excess [37]: -0.0422 | Bliss excess [38]: 0.087 | Bliss excess (NCI-H2731 (Mesothelioma) [39]): 0.0907 | Bliss excess (SJSA-1 (Osteosarcoma) [40]): -0.0857

N#Cc1cnc(Nc2cc(NC[C@H]3CNCCO3)c(C(F)(F)F)cn2)cn1 [SRA737] + O=c1[nH]cc(F)c(=O)[nH]1 [5-Fluorouracil] (first compound max 10 µM, 7x7, partner max 20 µM)
combination Emax [1]: 0.407 | combination Emax [41]: 0.307 | combination Emax [2]: 0.354 | combination Emax [3]: 0.419 | combination Emax [4]: 0.99 | combination Emax [5]: 0.611 | combination Emax [6]: 0.821 | combination Emax [7]: 0.458 | combination Emax [8]: 0.403 | combination Emax [9]: 0.606 | combination Emax [10]: 0.588 | combination Emax [11]: 0.384 | combination Emax (M059J (Glioblastoma) [12]): 0.315 | combination Emax [13]: 0.928 | combination Emax [14]: 0.768 | combination Emax [15]: 0.436 | combination Emax [16]: 0.855 | combination Emax [17]: 0.922 | combination Emax [18]: 0 | combination Emax (NCI-H2731 (Mesothelioma) [19]): 0.172 | combination Emax (SJSA-1 (Osteosarcoma) [20]): 0.403 | Bliss excess [21]: -0.0187 | Bliss excess [22]: -0.0163 | Bliss excess [23]: -0.001 | Bliss excess [24]: 0.127 | Bliss excess [25]: 0.0315 | Bliss excess [26]: 0.077 | Bliss excess [27]: -0.0561 | Bliss excess [28]: 0.0039 | Bliss excess [29]: -0.0726 | Bliss excess [30]: -0.0306 | Bliss excess [31]: 0.0483 | Bliss excess (M059J (Glioblastoma) [32]): 0.0052 | Bliss excess [33]: 0.0098 | Bliss excess [34]: 0.0184 | Bliss excess [35]: -0.0751 | Bliss excess [36]: 0.0854 | Bliss excess [37]: 0.0646 | Bliss excess [38]: -0.0757 | Bliss excess (NCI-H2731 (Mesothelioma) [39]): -0.0374 | Bliss excess (SJSA-1 (Osteosarcoma) [40]): 0.0126
